Reference: patent US8318781B2, “G-protein-conjugated receptor agonist” (Japan Science and Technology Agency, priority 2007, dated 2012)
Like-named read-outs stand apart in the source and are kept apart here.

What was measured:
Assay type in all cases: cell-based
human GPR120 (hGPR120) [1] = molecular target: T1, human GPR120 (hGPR120) (Homo sapiens, UniProt Q5NUL3); test: ERK assay, screening for GPR120 ligands in cell line TXGPR120;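 as to ERK/GPR120 10 μM: signals normalized between DMSO and PMA controls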; conditions: for ERK activation for GPR120 (in words) / ERK/GPR120 10 μM / ERK/GPR120 100 μM: TXGPR120 cells; for ERK activation for GPR120 (in words): FIGS. 5-8; for ERK/GPR120 10 μM: ligand 10 μM; for ERK/GPR120 10 μM / ERK/GPR120 100 μM: class relative to LA; for ERK/GPR120 100 μM: ligand 100 μM
T1 construct: expressed in transfected cells; doxycycline-inducible expression vector
T1 sequence (Q5NUL3 1-361): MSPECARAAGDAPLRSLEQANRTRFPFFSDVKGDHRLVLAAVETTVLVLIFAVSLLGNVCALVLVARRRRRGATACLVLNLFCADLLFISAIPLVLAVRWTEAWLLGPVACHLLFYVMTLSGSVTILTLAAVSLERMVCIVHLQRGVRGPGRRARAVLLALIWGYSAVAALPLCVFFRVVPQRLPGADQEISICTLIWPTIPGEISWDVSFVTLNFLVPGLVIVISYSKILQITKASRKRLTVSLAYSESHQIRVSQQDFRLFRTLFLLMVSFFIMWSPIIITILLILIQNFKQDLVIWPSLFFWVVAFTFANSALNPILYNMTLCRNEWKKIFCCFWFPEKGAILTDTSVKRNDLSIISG
Procedure: (§1) This Test 1 was carried out by using the following materials and methods.
(§2) (1) In this test, the cell lines TXGPR40 and TXGPR120 were plated in 35-mm dishes in 5×10^5 cells/per dish.
(§3) Each ligand was dissolved in DMSO, diluted tenfold with the medium to make the total amount of 100 μl. DMSO was used as the negative control, and PMA (phorbol-12-myristate-13-acetate) was used as the positive control.
(§4) (3) The medium was removed from the dish of the cell to reduce the total amount of liquid to 0.9 ml.
(§5) (4) The ligand solution was added dropwise to the cell solution, and dispersed by gently shaking the dish, and allowed to react at room temperature.
(§6) (5) After 5 minutes of reaction, the medium was discarded, and the remaining medium on the dish was removed on ice using an aspirator.
(§7) (6) 150 μl of Lysis buffer (50 mM HEPES (pH 7.0), 150 mM NaCl, 10% glycerol, 1% NonidetP-40, 2 mM MgCl2, 1 mM EDTA, 100 mM NaF, 10 mM sodium phosphate, 1 mM Na3VO4, 20 mM β-glycerophosphate, and Proteinase inhibitor) were added, then the cells were collected using a cell scraper.
(§8) (1) The crude enzyme solution mixed with SDS Sample Buffer was subjected to ultrasonication with a sonifier, then incubated at 90° C. for five minutes.
(§9) (2) The mixture was vortexed and centrifuged at 15,000 rpm for five minutes at 4° C.
(§10) (3) The supernatant of the centrifuged sample was applied to two 7.5% acrylamide gel slabs placed in an electrophoresis tank filled with 1×SDS-PAGE Running Buffer (25 mM Tris, 0.2 M Glycin, and 1% SDS). Electrophoresis was carried out under a constant current of 40 mA for about 80 to 90 minutes.
(§11) (1) A PVDF membrane cut in the same size as the gel slab was immersed in methanol for about 15 seconds and then shaken in Transfer Buffer C solution (25 mM Tris, 0.02% SDS, 2% methanol and 40 mM 6-aminohexanoic acid) at room temperature to swell for 15 minutes. Filter paper for blotting was cut into a 10-cm square.
(§12) (2) On the blotting apparatus were placed sequentially two pieces of filter paper immersed in A solution (0.3 M Tris, 0.02% SDS and 2% methanol), two pieces of filter paper immersed in B solution (25 mM Tris, 0.02% SDS and 2% methanol), and the membrane thereon. The gel slab after electrophoresis, and finally two pieces of filter paper immersed in C solution was placed thereon, and the apparatus was closed.
(§13) (3) The protein was transferred to the membrane at 15 V for 30 minutes.
(§14) (1) The following procedure was all carried out at room temperature. After the protein transfer, the membrane was placed into a vial containing 1×TTBS (0.2 M Tris, 1.5 M NaCl, 0.2% Tween 20) and washed for 15 minutes.
(§15) (2) TTBS was discarded, and about 10 ml of Block Ace was added and blocked on a shaker for one hour.
(§16) (1) The primary antibodies (p44/42 MAP Kinase Antibody and Phospho-p44/42 MAP Kinase Antibody) were each diluted 1000-fold with TTBS.
(§17) (2) After blocking, the Block Ace solution was removed, the solution of the primary antibody was added and allowed to react on the shaker for two hours.
(§18) (1) The secondary antibody (Anti-rabbit Ig, Horseradish Peroxidase linked F(ab′)2 fragments) was diluted 5000-fold with TTBS.
(§19) (2) The primary antibody solution was removed and the membrane was washed three times on the shaker in TTBS for five to ten minutes each.
(§20) (3) TTBS was removed and the solution of secondary antibody was added and left for 1 hour on the shaker.
(§21) (1) 2 ml each of Detection Reagent 1 and Detection Reagent 2 from ECL kit were mixed together on ice.
(§22) (2) The solution of secondary antibody was removed from the membrane reacted with the secondary antibody and then washed three times on the shaker in TTBS for five minutes each.
(§23) (3) The liquid was thoroughly removed from the membrane, which was then placed in a plastic bag, and 2 ml of the Detection Reagent mixture was added per each membrane.
(§24) (4) The membrane was kept in contact with a film in the cassette for one to five minutes, and the film was developed using an automatic developing machine.

human GPR120 (hGPR120) [2] = molecular target: T1, human GPR120 (hGPR120); test: Determination of intracellular Ca2+ concentration (FLIPR), cell line TXGPR120; conditions: for agonistic activity for hGPR120 (in words): cells in which GPR120 has been transgenically expressed; for [Ca^2+]/GPR120 10 μM (ratio vs. LA): relative fluorescence intensity vs LA at 10 μM
Procedure: (§25) (1) In this test, The cell lines TXGPR40, TXGPR120 and GPR120/Flp-in were plated onto a collagen-coated black 96-well plate in 2×10^5 cells/well. The 96-well plates containing the cells were centrifuged and treated with Doxycycline (final concentration 10 μg/mL), incubated in a CO2 incubator for 21 hours, then used for assay.
(§26) (2) The ligand used in this test includes NCP04, NCP14, NCG20, NCG21, NCG22, NCG23, NCP02, NCP03, NCP05, NCP06, NCG14, NCG17, NCG19, NCG28, NCG29, NCG30, NCG31, NCG34, NCG35, NCG37, NCG38, NCG44, NCG45, NCG46, and NCG54. Each ligand was dissolved in DMSO and adjusted to the concentration of 10 mM, then diluted with Hanks' Balanced Salt Solution (pH 7.4) containing 20 mM HEPES (referred to as FLIPR buffer hereinafter) to the final concentration of 1 to 100 μM. 1% DMSO was used as the negative control, and LA was used as the positive control.
(§27) The ligands and controls were placed in different 96-well plates from the plates for the cells.
(§28) (3) The 96-well plate containing the cells was removed from the CO2 incubator. A fluorescent dye prepared in a twofold higher concentration (Ca Assay Kit Component A diluted with FLIPR Buffer) was added in 50 μL/well, then allowed to stand in the dark at room temperature for one hour.
(§29) (4) After one hour, the 96-well plate containing the cells and the 96-well plate in which ligands and controls were prepared were set on FLIPR (Fluorometric Imaging Plate Reader) for determination.
(§30) (5) Fluorometry using FLIPR was carried out at a laser output of 1.0 W for five minutes. […] after the start of the determination, the ligand (25 μL) was added dropwise to the cell plate at a rate of 50 μL/sec. The intensity of fluorescence was automatically digitized by the application program installed in the FLIPR from the image taken by the CCD camera (with exposure time of 0.40 sec). The interval of data sampling was one second for the initial one minute after the start of operation, and six seconds for the subsequent four minutes.
(§31) (6) The maximum fluorescence intensity was obtained from the data showing the change in the fluorescence intensity over time observed in each well. The maximum fluorescence intensity was plotted against ligand concentration, and pEC50 was calculated. The ratio of the fluorescence intensity for each ligand to LA at 10 μM was calculated as the relative intensity of each ligand.

human GPR40 (hGPR40) [3] = molecular target: T2, human GPR40 (hGPR40) (Homo sapiens, UniProt O14842); test: Determination of intracellular Ca2+ concentration (FLIPR), cell line TXGPR40; conditions: for agonistic activity for GPR40 (in words): cells in which GPR40 has been transgenically expressed; for [Ca^2+]/GPR40 10 μM (ratio vs. LA): relative fluorescence intensity vs LA at 10 μM
T2 construct: expressed in transfected cells; doxycycline-inducible expression vector
Procedure: as §25, §26, §27, §28, §29, §30, §31

human GPR120 (hGPR120) [4] = molecular target: T1, human GPR120 (hGPR120); test: Determination of intracellular Ca2+ concentration (FLIPR), cell line GPR120/Flp-in; conditions: for [Ca^2+]/GPR120/Flp-In 10 μM (ratio vs. LA): relative fluorescence intensity vs LA at 10 μM
Procedure: as §25, §26, §27, §28, §29, §30, §31

human GPR40 (hGPR40) [5] = molecular target: T2, human GPR40 (hGPR40); test: ERK assay, screening for GPR40 ligands in cell line TXGPR40; conditions: TXGPR40 cells; for ERK/GPR40 10 μM: ligand 10 μM; for ERK/GPR40 10 μM / ERK/GPR40 100 μM: class relative to LA; for ERK/GPR40 100 μM: ligand 100 μM
Procedure: as §1, §2, §3, §4, §5, §6, §7, §8, §9, §10, §11, §12, §13, §14, §15, §16, §17, §18, §19, §20, §21, §22, §23, §24

[6] = TXGPR40 cells, maximum fluorescence intensity vs ligand concentration, read-out: [Ca^2+]/GPR40 pEC50 (converted)
[7] = GPR120/Flp-in cells, maximum fluorescence intensity vs ligand concentration, read-out: [Ca^2+]/GPR120/Flp-In pEC50 (converted)

T2 sequence (O14842 whole entry): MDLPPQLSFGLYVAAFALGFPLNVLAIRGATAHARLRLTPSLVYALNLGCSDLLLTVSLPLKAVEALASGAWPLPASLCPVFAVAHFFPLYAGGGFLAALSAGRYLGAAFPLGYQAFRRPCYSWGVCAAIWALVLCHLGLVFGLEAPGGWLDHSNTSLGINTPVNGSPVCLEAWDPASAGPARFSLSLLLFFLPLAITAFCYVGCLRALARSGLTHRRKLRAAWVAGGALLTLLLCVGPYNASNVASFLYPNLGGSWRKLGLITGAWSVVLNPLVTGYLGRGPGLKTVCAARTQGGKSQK

| SMILES | ERK activation for GPR120 (in words) (human GPR120 (hGPR120) [1]) | ERK/GPR120 10 μM (human GPR120 (hGPR120) [1]) | ERK/GPR120 100 μM (human GPR120 (hGPR120) [1]) | EC50 (human GPR120 (hGPR120) [2]) [µM] | agonistic activity for hGPR120 (in words) (human GPR120 (hGPR120) [2]) | [Ca^2+]/GPR120 10 μM (ratio vs. LA) (human GPR120 (hGPR120) [2]; TXGPR120 cells) | EC50 (human GPR40 (hGPR40) [3]) [µM] | agonistic activity for GPR40 (in words) (human GPR40 (hGPR40) [3]) | [Ca^2+]/GPR40 10 μM (ratio vs. LA) (human GPR40 (hGPR40) [3]; TXGPR40 cells) | EC50 (human GPR120 (hGPR120) [4]) [µM] | [Ca^2+]/GPR120/Flp-In 10 μM (ratio vs. LA) (human GPR120 (hGPR120) [4]; GPR120/Flp-in cells) | ERK activation for GPR40 (in words) (human GPR40 (hGPR40) [5]; FIGS. 1-4) | ERK/GPR40 10 μM (human GPR40 (hGPR40) [5]) | ERK/GPR40 100 μM (human GPR40 (hGPR40) [5]) | selectivity for GPR120 in ERK assay (in words) (human GPR120 (hGPR120) [1]; GPR120 versus GPR40) | selectivity between GPR40 and GPR120 (in words), from Tables 3 and 4 (human GPR120 (hGPR120) [2]; GPR40 versus GPR120, Ca2+ and ERK results) | EC50 (human GPR120 (hGPR120) [2]; TXGPR120 cells, maximum fluorescence intensity vs ligand concentration, read-out: [Ca^2+]/GPR120 pEC50 (converted)) [µM] | EC50 (human GPR40 (hGPR40) [3]; [6]) [µM] | EC50 (human GPR120 (hGPR120) [4]; [7]) [µM] |
| --- | --- | --- | --- | --- | --- | --- | --- | --- | --- | --- | --- | --- | --- | --- | --- | --- | --- | --- | --- |
| Cc1cccc(N(CCOc2ccc(CCCC(=O)O)cc2)c2ccccc2)n1 [NCG38] | strongly activate ERK | +++ (+++ denotes a higher value than LA) | +++ (+++ denotes a higher value than LA) | 22.4 | exhibit a similar effect | 0.56 | 13.5 | showed a specific reactivity | 0.34 | 6.76 | 0.81 | strongly activated ERK | ++ (++ denotes 50 to 100% of LA) | +++ (+++ denotes a higher value than LA) |  |  |  |  |  |
| COc1cccc(N(CCOc2ccc(CCCC(=O)O)cc2)c2ccccc2)n1 [NCG37] | strongly activate ERK | +++ (+++ denotes a higher value than LA) | +++ (+++ denotes a higher value than LA) |  | exhibit a similar effect | 0.56 |  |  | 0.28 |  | 0.91 |  |  | + (+ denotes 0 to 100% of LA) | selective for GRP120 | acting relatively mildly for GPR40 but acting strongly for GPR120 | 17.8 | 16.2 | 3.47 |
| O=C(O)CCc1ccc(OCCN(c2ccccc2)c2ccccn2)cc1 [NCP14] |  |  | ++ (++ denotes 50 to 100% of LA) |  | exhibit a similar effect | 0.00 |  | showed a specific reactivity | 0.98 |  | 0.56 |  | ++ (++ denotes 50 to 100% of LA) | ++ (++ denotes 50 to 100% of LA) |  |  |  | 9.77 | 15.5 |
